Assays:
[1] = molecular target: T1, Type I pyruvate kinase of rabbit muscle (Oryctolagus cuniculus, UniProt P11974); assay: Pyruvate kinase activity in vitro (LDH-coupled, 340 nm); assay type: biochemical; conditions: DDS added directly along with PK; FIG. 16A
T1 construct: purchased Sigma; host or cells: rabbit muscle
Protocol: PK activity was analyzed through the decrease degree of absorbance at 340 nm by using the change result from pyruvate and NADH to lactate and NAD by lactate dehydrogenase (LDH). The pyruvate and ATP used for the above process were produced from phosphoenolpyruvate (PEP) and ADP by PK. The analysis in vitro was measured by adding directly DDS along with PK to the above reaction mixture and the analysis in vivo was measured by adding worms that fed on DDS.
Samples were homogenized by rupturing C. elegans with glass bead Precellys 24 homogenizer, twice for 20 seconds, at 5000 rpm in a 100 mM potassium phosphate buffer, pH 7.6, at 37° C. A CHAPS was added to the homogenized sample to be 1% of the final concentration and then centrifuged at 15000 g for 20 minutes. The measurement of pyruvate kinase(PK) activity was performed at 37° C. by adding 300 uL of the reaction mixture contained 100 mM potassium phosphate buffer at pH 7.6 and 37° C., 100 mM MgSO4, 1.3 mM β-NADH, 5000 units/mL of lactate dehydrogenase (LDH), 2 mM adenosine diphosphate (ADP) and 17 mM phosphoenolpyruvate (PEP) into the sample. The change of oxidation degree of NADH was measured at 340 nm of absorbance. PK 1 unit was defined as the change into 1.0 umole of pyruvate per a minute at pH 7.6 and 37° C. […] Type I pyruvate kinase (Sigma) of rabbit muscle was used for in vitro experiment.

[2] = test system: mitochondria; assay: Mitochondria structure staining with MitoTracker Red; assay type: cell-based, human; conditions: pretreated with DDS or DPI, then 1 mM PQ 24 hours; FIG. 30
Protocol: The first photograph indicates the stained mitochondria of the non-treated human diploid fibroblast as a control, the second photograph indicates the stained mitochondria of the PQ-treated human diploid fibroblast, the third photograph indicates the stained mitochondria of the human diploid fibroblast that was pretreated with DDS and then was treated with PQ, and the final photograph indicates the stained mitochondria of the human diploid fibroblast that was treated with DPI and PQ together (by using Confocal process). The values of (A, B, C and D: ×4000) is means±SEM (n=3), # is p<0.005 relative CC; and * is p<0.005 relative C.
The human diploid fibroblasts were cultured at 24-well plate. After the above experiment materials, i.e., the human diploid fibroblasts, were pretreated and then were treated with PQ for 24 hours, the above cells were treated with MitoTracker Red CMXRos (50 nM), which is a staining material for mitochondria, at 37° C. for 30 minutes. The dye is a marker of function for marking mitochondria through marking a transmembrane potential of mitochondria in a cell. After culturing, the cells were washed with PBS and then fixed with 4% of paraformaldehyde at 4° C. for overnight. […] After washing, the cells were covered with a cover glass and visualized through a fluorescence microscope.

T1 sequence (P11974 whole entry): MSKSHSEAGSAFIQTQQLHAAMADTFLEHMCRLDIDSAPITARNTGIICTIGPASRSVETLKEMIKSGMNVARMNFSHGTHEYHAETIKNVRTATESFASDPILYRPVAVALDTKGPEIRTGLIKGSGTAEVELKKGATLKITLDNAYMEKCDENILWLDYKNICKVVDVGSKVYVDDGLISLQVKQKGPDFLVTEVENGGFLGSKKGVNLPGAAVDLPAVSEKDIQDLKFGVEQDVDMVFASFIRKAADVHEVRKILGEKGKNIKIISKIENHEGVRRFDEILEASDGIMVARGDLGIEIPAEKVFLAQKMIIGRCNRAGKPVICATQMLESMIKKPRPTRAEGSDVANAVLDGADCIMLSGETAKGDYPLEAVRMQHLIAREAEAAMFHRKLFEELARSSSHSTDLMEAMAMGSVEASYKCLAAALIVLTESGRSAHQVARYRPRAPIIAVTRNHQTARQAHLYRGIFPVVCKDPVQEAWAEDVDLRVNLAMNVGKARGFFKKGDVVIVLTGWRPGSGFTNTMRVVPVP

What does the source list for Nc1ccc(S(=O)(=O)c2ccc(N)cc2)cc1 [DDS, 4,4′-diaminodiphenylsulfone]?
biochemical activity of PK in vitro [1]: suppresses; shape of mitochondria after PQ (MitoTracker) [2]: recovered, partially
